Test results as given in patent US6538037B2, “Methods for preparation and use of 1α,24(S)-dihydroxyvitamin D2” (Bone Care International, Inc., priority 1991, dated 2003).

Key:
LNCAP [1] = test: Inhibition of cell proliferation, LNCAP; type: cell-based, human; settings: 10^−11 M to 10^−7 M, 6-7 days
Method: (§1) The cell lines, LNCAP and PC-3, which are derived from human prostate adenocarcinoma, are seeded in six-well tissue culture plates at a density of about 50,000 cells/plate. After the cells have attached and stabilized, about 2-3 days, the medium is replenished with medium containing vehicle or the active vitamin D analogue 1α,24-(OH)2D2, at concentrations from 10^−11 M to 10^−7 M. Medium containing test analogue or vehicle is replaced every three days. After 6-7 days, the medium is removed, the cells are rinsed, precipitated with cold 5% trichloroacetic acid, and washed with cold ethanol. The cells are solubilized with 0.2 N sodium hydroxide, and the amount of DNA determined by standard procedures.

[2] = system: advanced androgen-independent prostate cancer; test: Treatment of advanced androgen-independent prostate cancer, open-labeled study; type: in vivo, human; settings: for progression of metastatic disease: after one and two years
Text: Patients with advanced androgen-independent prostate cancer participate in an open- labeled study of 1α,24-(OH)2D2. […] On admission to the study, patients begin a course of therapy with oral 1α,24-(OH)2D2 lasting 26 weeks, while discontinuing any previous use of calcium supplements, vitamin D supplements, and vitamin D hormone replacement therapies. During treatment, the patients are monitored at regular intervals for: (1) hypercalcemia, hyperphosphatemia, hypercalciuria, hyperphosphaturia and other toxicity; (2) evidence of changes in the progression of metastatic disease; and (3) compliance with the prescribed test drug dosage.
The study is conducted in two phases. During the first phase, the maximal tolerated dosage (MTD) of daily oral 1α,24-(OH)2D2 is determined by administering progressively higher dosages to successive groups of patients. All doses are administered in the morning before breakfast. […] Subsequent groups of patients are treated with 50.0, 75.0 and 100.0 μg/day.
During the second phase, patients are treated with 1α,24-(OH)2D2 for 24 months at 0.5 and 1.0 times the MTD.

PC-3 = test: Inhibition of cell proliferation, PC-3; type: cell-based, human; settings: 10^−11 M to 10^−7 M, 6-7 days
Method: as §1

LNCAP [3] = test: Cell differentiation, PSA production in LNCaP; type: cell-based, human; settings: 10^−11 M to 10^−7 M, 6-7 days
Method: Using the techniques of Skowronski et al., 132 Endocrinology (1993) 1952-1960 and 136 Endocrinology (1995) 20-26, both of which are incorporated herein by reference, cells of the cell line, LNCaP, which is derived from a human metastatic prostate adenocarcinoma and known to express PSA, are seeded in six-well tissue culture plates at a density of about 50,000 cells/plate. After the cells have attached and stabilized, about 2-3 days, the medium is replenished with medium containing vehicle or the active vitamin D analogue, 1α,24-(OH)2D2, at concentrations from 10^−11 M to 10^−7 M. After 6-7 days, medium is removed and stored at −20° C. for prostate specific antigen (PSA) analysis.
The cells from parallel cultures are rinsed, precipitated, and the amount of DNA determined by standard procedures. PSA is measured by standard known methods.

C=C1/C(=C\C=C2/CCC[C@]3(C)[C@@H]([C@H](C)/C=C/C(C)(O)C(C)C)CC[C@@H]23)C[C@@H](O)C[C@@H]1O (relative stereo) [1α,24-(OH)2D2, 5,6-cis-1α,24-dihydroxyvitamin D2]
cell number (amount of DNA) versus control cultures (LNCAP [1]): significantly fewer cells than the control cultures
bone pain associated with metastatic disease ([2]; MTD for at least six months): significantly diminished
maximum levels of circulating 1α,24-(OH)2D2 ([2]; at the highest dosages): above 100 pg/mL
circulating levels of 1α,25-(OH)2D3 ([2]; during treatment): suppressed, often to undetectable levels
progression of metastatic disease ([2]; higher dosage (1.0 times the MTD)): stable disease and partial or complete remission in many patients
levels of circulating 1α,24-(OH)2D2 versus dosage ([2]; in vivo): increase proportionately with the dosage administered
serum and urine calcium ([2]; in vivo): elevated in a dose responsive manner
progression of metastatic disease ([2]; lower dosage (0.5 times the MTD)): stable disease or partial remission in many patients
cell number (amount of DNA) versus control cultures (PC-3): significantly fewer cells than the control cultures
PSA expressed as mass of PSA/cell versus control cultures (LNCAP [3]): significantly more PSA than control cultures
